Measurements: patent publication US20230227398A1, “MESCALINE DERIVATIVES WITH MODIFIED ACTION” (Mind Medicine, Inc., priority 2021, published 2023)
“Also recorded” adds a separate entry of the source.

Columns and labels:
[1] = Duration of action and potency of mescaline derivatives; set-up: species or system humans; settings: in vivo
Excerpt: Together, the in vitro profiles of mescaline and its derivatives represented in FIG. 1 compared with that of psilocin and LSD indicate overall psychedelic properties of all compounds but also differences that likely manifest when used in humans. Accordingly, some mescaline derivatives will exert psychedelic acute effect profiles that are more beneficial to some patients including but not limited to: more overall positive effects, more or less perceptual effects, more emotional effects, less anxiety, less cardio-stimulant effects, less adverse effects, less nausea, longer and also shorter effects among other properties and compared to mescaline. Specifically, taken together the pharmacological data and structural specifics on the substances tested herein some compounds are of particular interest. FE and FP have a relatively short duration of action (<6 hours) compared with mescaline and potentially empathogenic MDMA-like effects.
The compounds represented by FIG. 1 act with shorter, with similar or with longer duration of action in human in comparison to the original mescaline molecule. This is triggered by modification of the molecular structure in FIG. 1.

5-HT2A receptor = 5-HT2A receptor (Homo sapiens, UniProt P28223); settings: cited from earlier work
Chain of 5-HT2A receptor (P28223 whole entry): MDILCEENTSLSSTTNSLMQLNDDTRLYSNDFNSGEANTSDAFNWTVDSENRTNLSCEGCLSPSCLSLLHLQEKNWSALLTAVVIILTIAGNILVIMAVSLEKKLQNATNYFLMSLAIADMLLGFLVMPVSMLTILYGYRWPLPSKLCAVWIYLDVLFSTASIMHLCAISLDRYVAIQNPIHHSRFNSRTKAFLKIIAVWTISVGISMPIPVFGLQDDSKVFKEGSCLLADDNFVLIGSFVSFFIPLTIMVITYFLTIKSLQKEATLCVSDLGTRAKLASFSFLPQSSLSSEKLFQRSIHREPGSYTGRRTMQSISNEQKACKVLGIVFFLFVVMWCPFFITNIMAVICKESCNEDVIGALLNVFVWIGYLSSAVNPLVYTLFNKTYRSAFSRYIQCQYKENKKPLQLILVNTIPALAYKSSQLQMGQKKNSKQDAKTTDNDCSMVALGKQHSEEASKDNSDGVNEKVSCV

D2 receptors = D2 receptors (Homo sapiens, UniProt P14416); settings: cited from earlier work
Chain of D2 receptors (P14416 whole entry): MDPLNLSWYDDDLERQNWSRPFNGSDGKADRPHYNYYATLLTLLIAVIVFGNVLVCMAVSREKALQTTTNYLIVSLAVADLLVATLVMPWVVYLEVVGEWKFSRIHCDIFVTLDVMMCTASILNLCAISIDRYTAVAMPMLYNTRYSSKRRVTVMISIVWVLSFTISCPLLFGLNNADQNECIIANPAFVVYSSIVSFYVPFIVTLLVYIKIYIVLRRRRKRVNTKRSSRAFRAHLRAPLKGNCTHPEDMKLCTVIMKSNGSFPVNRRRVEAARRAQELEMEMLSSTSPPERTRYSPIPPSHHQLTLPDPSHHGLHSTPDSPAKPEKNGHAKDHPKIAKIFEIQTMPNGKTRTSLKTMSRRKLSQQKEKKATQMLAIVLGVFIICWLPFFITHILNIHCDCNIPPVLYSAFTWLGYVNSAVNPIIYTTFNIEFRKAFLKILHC

5-HT transporter (SERT) = 5-HT transporter (SERT) (Homo sapiens, UniProt P31645); settings: cited from earlier work
Chain of 5-HT transporter (SERT) (P31645 whole entry): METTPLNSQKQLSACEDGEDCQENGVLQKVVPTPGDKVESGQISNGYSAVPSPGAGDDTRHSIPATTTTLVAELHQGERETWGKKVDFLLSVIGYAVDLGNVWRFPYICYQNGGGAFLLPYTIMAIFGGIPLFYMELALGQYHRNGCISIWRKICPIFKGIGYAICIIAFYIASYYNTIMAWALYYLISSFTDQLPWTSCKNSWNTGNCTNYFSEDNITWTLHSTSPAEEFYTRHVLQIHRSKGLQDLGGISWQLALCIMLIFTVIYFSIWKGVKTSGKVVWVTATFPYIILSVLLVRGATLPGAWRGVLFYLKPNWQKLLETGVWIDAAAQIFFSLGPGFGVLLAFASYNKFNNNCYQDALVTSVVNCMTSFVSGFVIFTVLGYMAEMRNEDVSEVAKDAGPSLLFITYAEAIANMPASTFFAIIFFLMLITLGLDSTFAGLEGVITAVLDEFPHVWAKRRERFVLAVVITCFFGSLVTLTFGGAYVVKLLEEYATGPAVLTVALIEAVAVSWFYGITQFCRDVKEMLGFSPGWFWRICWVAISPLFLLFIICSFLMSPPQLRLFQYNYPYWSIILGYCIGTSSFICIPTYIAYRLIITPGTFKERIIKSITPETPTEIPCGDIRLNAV

[2] = humans (Charalampous, 1966); cited from earlier work
[3] = molecular target: T1, serotonin 5-HT2A receptor (Homo sapiens, UniProt P28223); test: 5-HT2A receptor binding (in vitro profiling at key targets)
T1 sequence (P28223 whole entry): as the sequence (P28223 whole entry) above

[4] = humans, cited from earlier work
[5] = molecular target: T1, serotonin 5-HT2A receptor; settings: background art; cited from earlier work
α2A receptors = molecular target: T2, α2A receptors (Homo sapiens, UniProt P08913); settings: background art; cited from earlier work
T2 sequence (P08913 1-465): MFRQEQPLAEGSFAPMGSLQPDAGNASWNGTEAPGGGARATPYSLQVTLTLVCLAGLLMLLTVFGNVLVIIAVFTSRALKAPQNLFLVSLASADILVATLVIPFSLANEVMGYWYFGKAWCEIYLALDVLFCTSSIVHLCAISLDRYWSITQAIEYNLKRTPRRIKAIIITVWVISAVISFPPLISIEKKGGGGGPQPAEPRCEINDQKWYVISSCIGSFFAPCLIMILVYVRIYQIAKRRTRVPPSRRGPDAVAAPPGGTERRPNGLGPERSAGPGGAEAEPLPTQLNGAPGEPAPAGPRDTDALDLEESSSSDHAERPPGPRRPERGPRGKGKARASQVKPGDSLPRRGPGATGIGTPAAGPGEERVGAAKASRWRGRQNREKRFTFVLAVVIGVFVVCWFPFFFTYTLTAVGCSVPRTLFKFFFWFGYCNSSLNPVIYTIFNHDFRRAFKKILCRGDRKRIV

5-HT1A receptor = molecular target: T3, 5-HT1A receptor (Homo sapiens, UniProt P08908); settings: background art; cited from earlier work
T3 sequence (P08908 1-422): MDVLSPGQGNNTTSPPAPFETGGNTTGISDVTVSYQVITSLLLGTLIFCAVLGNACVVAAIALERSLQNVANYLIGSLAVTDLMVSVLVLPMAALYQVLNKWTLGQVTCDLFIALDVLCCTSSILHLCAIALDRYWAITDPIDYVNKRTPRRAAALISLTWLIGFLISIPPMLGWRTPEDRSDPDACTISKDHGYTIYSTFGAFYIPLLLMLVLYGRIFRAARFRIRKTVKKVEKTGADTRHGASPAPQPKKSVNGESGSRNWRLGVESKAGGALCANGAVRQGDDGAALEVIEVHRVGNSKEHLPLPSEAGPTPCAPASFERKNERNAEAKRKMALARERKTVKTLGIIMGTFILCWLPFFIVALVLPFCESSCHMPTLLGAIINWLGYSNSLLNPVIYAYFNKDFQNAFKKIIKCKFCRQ

monoamine transporters = test: Inhibition of monoamine transport (in vitro profiling); format: biochemical
Excerpt: Activity of compounds at monoamine transporters are thought to mediate MDMA-like empathogenic effects (Hysek et al., 2012). Importantly, mescaline is a very weak 5-HT2A receptor ligand and high doses are needed to induce psychoactive effects in humans. However, despite its low potency, mescaline can have extraordinarily strong psychedelic effects in humans at high doses and the same is likely the case for the substances developed within the present invention although 10-20-fold higher potency is also possible in some compounds, to be evaluated in detail clinically. Key results of pharmacological profiling of the compounds described herein were: […]

dopaminergic receptors = test: Binding to dopaminergic receptors (in vitro profiling); settings: in contrast to LSD

## COc1cc(CCN)cc(OC)c1OC(F)F.Cl [DFM, 4-Difluoromethoxy-3,5-dimethoxyphenethylamine hydrochloride]
[1]
  potency (in words): relatively potent

## CN(C)CCc1c[nH]c2ccccc12 [DMT, N,N-dimethyltryptamine]
5-HT2A receptor
  agonism / stimulation of the 5-HT2A receptor (in words): agonists

## CCN(CC)C(=O)[C@@H]1C=C2c3cccc4[nH]cc(c34)C[C@H]2N(C)C1 [LSD, lysergic acid diethylamide]
D2 receptors
  affinity / activity at D2 receptors (in words): has activity
5-HT2A receptor
  agonism / stimulation of the 5-HT2A receptor (in words): agonists; also recorded: potently stimulates

## CN(C)CCc1c[nH]c2cccc(O)c12 [Psilocin]
5-HT transporter (SERT)
  interaction with / inhibition of SERT (in words): inhibits
5-HT2A receptor
  agonism / stimulation of the 5-HT2A receptor (in words): stimulates

## COc1cc(CCN)cc(OC)c1OCC(F)(F)F.Cl [TFE, 3,5-Dimethoxy-4-(2,2,2-trifluoroethoxy)phenethylamine hydrochloride]
[1]
  potency (in words): relatively potent

## COc1cc(CCN)cc(OC)c1OC [mescaline]
[2]
  eliminated in urine unchanged, fraction of the dose ingested: up to two thirds
  plasma half-life: approximately 6 hours
[3]
  5-HT2A receptor binding affinity / binding potency (in words): very weak
D2 receptors
  affinity / activity at D2 receptors (in words): no affinity
5-HT transporter (SERT)
  interaction with / inhibition of SERT (in words): do not interact
[4]; dose-dependently
  subjective effects last (duration): 10 to 16 h
[4]; psychoactive doses
  subjective effects appear (onset): ≤ 30 min
  subjective effects peak: 4 h
[4]
  doses needed to induce a full psychedelic experience: 200 to 800 mg
[5]
  binding to 5-HT2A receptor (in words): rather low concentration range
α2A receptors
  binding to α2A receptors (in words): rather low concentration range
5-HT2A receptor
  agonism / stimulation of the 5-HT2A receptor (in words): agonists
5-HT1A receptor
  binding to 5-HT1A receptor (in words): rather low concentration range
Monoamine transporters
  inhibition of monoamine transport (in words): did not inhibit monoamine transport
Dopaminergic receptors
  binding to dopaminergic receptors (in words): did not relevantly bind
